“And” between values parts separate entries of the source, which are not always exact repeats. Equal entries are not always repeated. Where two headings read alike, the source gives them in different places.
How the values were obtained:
[1] = test system: P. falciparum, NF54; assay: P. falciparum growth inhibition assay (Malstat); assay type: cell-based, Plasmodium falciparum; details: 72 h, maximum concentration tested 6000 nM, three independent experiments in triplicate, ± SEM, read-out: IC50 against P. falciparum, NF54
Experimental: The antimalarial activities of C1 to C4 and F1 to F3 were determined against the wild-type drug sensitive strain of P. falciparum, NF54. […]. Further, a close link between activity and oxidation potentials of the drugs was found. The lower the oxidation potential of the ferrocene moiety, the higher the activity of the final compound, giving directions for future compound development.
The drugs were prepared as 10 mM stocks in sterile DMSO. The drugs were then diluted using freshly prepared growth medium to the desired testing concentrations. Chloroquine and artesunate were used as standards. A full dose–response was preformed using a 96-well plate assay and the IC50 values determined. The maximum concentration tested was 6 μM which was then serially diluted 2-fold in growth media. The plates were incubated at 37 °C for 72 h at 3% O2 and 4% CO2. After 72 h the wells were resuspended and 15 μL of the suspension was transferred to a duplicate plate containing 100 μL of Malstat reagent and 25 μL of nitroblue tetrazolium solution. The plates were allowed 20 minutes in the dark to develop and the absorbance of each well was measured using UV-Vis at 620 nm.

[2] = Cyclic voltammetry (oxidation/reduction potentials); assay type: physicochemical; details: Ag/AgCl electrode, scan rate 100 mV s^−1, 0.100 M [NBu4][PF6] in MeCN
[3] = test system: T. gondii (ΔKu80::mNeonGreen); assay: T. gondii growth inhibition assay (mNeonGreen fluorescence); assay type: cell-based, Toxoplasma gondii
Experimental: […]. The rate of hydrolysis of C2 and C4 is closely correlated to the activity seen against T. gondii, such that the more readily the complex separates into its constituents, parts the better the overall activity.
To further investigate whether the accumulation of ROS was implicated in the MoA, the growth inhibition studies were repeated in the presence of the ROS scavenger N-acetyl cysteine (NAC) (Table 5).
Growth inhibition assays were performed in black, clear-bottomed 96 well plates preseeded with Human foreskin fibroblasts (HFFs) as described previously.[48] ΔKu80:mNeonGreen T. gondii were counted using a hemeocytometer and media from the host-cell seeded plate was aspirated and replaced with either 200 μL of D3 or 200 μL of media + 5000 parasites per well. Infected cells were incubated for 2 hours at 37 °C with 5% CO2 to allow for invasion. Following this, the media was removed and replaced with 100 μL fresh media. 100 μL of media containing 100 μM of the indicated drug in sterile DMSO was added and serially diluted. The parasites were then incubated for four days at 37 °C with 5% CO2 then flourescense read using the PHERAstar microplate reader. After removal of background, fluorescence values were normalised to untreated and plotted. Data analysis and non-linear regression was performed in Prism.

[4] = test system: T. gondii; assay: Determination of intracellular ROS levels with CellROX by flow cytometry; assay type: cell-based, Toxoplasma gondii; details: 5 μM, 6 hours, 50 000 parasites, vs untreated
Experimental: Since both ferrocene and artesunate are able to generate ROS, we attempted to quantify the intracellular ROS levels in the parasite using CellROX, a compound which fluoresces in the presence of ROS. Treatment with artesunate was included as positive control as previous studies have linked artesunate treatment to ROS accumulation.[44] The parasites were treated with 5 μM of complexes C1, C3 and C4, and incubated for 6 hours. […] Since T. gondii rely predominately on heme biosynthesis as opposed to incorporation of heme from host hemoglobin, the concentration of iron present in the parasite is lower.[45] But, by incorporating an iron center in the molecule the slower activation may be circumvented leading to quicker cell death and a decreased CellROX reading.
Fig. 5 CellROX fluorescence quantified by flow cytometry from 50 000 parasites. T. gondii were untreated (grey) or treated for 6 hours with 5 μM compounds (blue) or artesunate (red) as a positive control.
Intracellular parasites were treated with 5 μM of the drug and incubated at 37 °C with 5% CO2 for either 18 hours or 6 hours. The parasites were released from host cells by scraping and syringing followed by passing through 3 μm filters to remove host-cell debris. The parasites were spun down at 6000 RPM for 10 minutes and resuspended in 500 μL PBS. 100 μL of the parasite suspension was placed in a FACS tube and a stock solution of CellROX dye in PBS (1 : 125 dilution) was added to this. This was then incubated in the dark at 37 °C for 1 hour and then read using a BD Celesta. Parasites were gated on forward and side scatter and on mNeonGreen fluorescence and histograms of Cy5 signal presented. Data analysis was performed using Flowjo.

[5] = Kinetic aqueous solubility, turbidimetric assay; assay type: physicochemical; details: for solubility at 4 h: aqueous buffer, kinetic from dmso stock, absorbance 620 nm
Experimental: The kinetic solubility of the complexes was determined by means of a turbidimetric assay. The complexes were first dissolved in dimethyl sulfoxide (DMSO) which was then serially diluted in either phosphate buffered saline (PBS) or 4-(2-hydroxyethyl)-1-piperazineethanesulfonic acid (HEPES). The extent of precipitation was then measured using the absorbance at 620 nm.
PBS was prepared by dissolving one PBS tablet in 200 mL of distilled water at 25 °C yielding a buffered solution containing 10 mM phosphate buffer, 3.0 mM KCl and 140 mM NaCl. The pH was then confirmed to be at 7.4 with a pH meter. A 0.025 M HEPES buffer was prepared by dissolving HEPES free acid 5.00 mmol in distilled water (±180 mL) and titrating the solution with 0.100 M NaOH until a pH 7 was reached, the volume was then made up to 200 mL using distilled water. A 10.0 mM stock of each drug was prepared in DMSO. […] 4 μL of the drugs was then pipetted into a 96-well plate loaded with 196 μL of either the desired buffer solution or DMSO. The test plates were then incubated at 37 °C for 4 hours following which the UV-Vis absorbance was measured at 620 nm and the absorbances corrected by subtracting the blank.

[6] = test system: clinically resistance (CQ-R) isolates of P. falciparum; set-up: method as in PMID 21894260; details: cited from earlier work
[7] = Aqueous stability (hydrolysis) by UV-Vis kinetic scan in 10% MeOH (aq); assay type: physicochemical; details: change in absorbance at 254 nm over one hour, ExpDec1 fit
Experimental: Since biological systems are comprised of water, the behavior and stability of a drug in aqueous media is important. To determine the stability, each complex was dissolved in MeOH and then diluted to 10% MeOH (aq). The solutions were then monitored by UV-Vis spectroscopy using a kinetic scan in the range 190–1100 nm over 1 hour. […] Hydrolysis was also supported by RP-HPLC in which new peaks emerged corresponding to the starting ferrocene precursors, F2 and F4. […] […] The major difference being between C1/C2 and C3/C4 is the nature of the linkage either being an ester or an amide bond. It is expected that the hydrolysis of C2 would occur quicker due to the more labile nature of the ester bond.
UV-Vis studies were performed by dissolving each complex in methanol to a concentration of 1 mM. This was then diluted using distilled water in a 10% methanol/water mixture giving a final concentration of 100 μM. The complexes were then monitored using a kinetic scan between the range 190–1100 nm scanning each minute over the course of one hour. […]

[8] = test system: PNT1A cells; assay: MTT cell viability assay, PNT1A; assay type: cell-based, human; details: 48 h
Experimental: (§1) To assess the cytotoxicity of the four compounds a MTT cell viability assay using human embryonic kidney (HEK293) and human prostatic (PNT1A) cell lines were performed. […] The long chain compounds C1 and C3 were also shown to be non-cytotoxic towards the HEK293 cell line.
(§2) The immortalised human prostatic epithelial cell line, PNT1A (Sigma Aldrich, 95012614) was cultured in RPMI-1640 containing 10% foetal calf serum (Life Technologies, South Africa). The human embryonic kidney cell line HEK293 (ATCC) was cultured in DMEM (Life Technologies, South Africa). Both cell lines were cultured at 37 °C under 5% CO2 with 1% penicillin and streptomycin. Cancer cell cytotoxicity was evaluated using the MTT viability assay according to our previous method.[49] Briefly, cells were seeded at a density of 3 × 10^3 cells per well in 96-well plates and allowed to settle overnight. A 100 mM stock of C1/C2 and a 50 mM stock solution of C3/C4 in DMSO was prepared from which dilutions were made. The compound was then added to the cells in triplicate to obtain the indicated concentrations and 0.1% DMSO. Controls included cells treated with […] DMSO alone. After 48 h, 10 μL of 5 mg mL^−1 MTT (3-(4,5-dimethylthiazol-2-yl)-2,5-diphenyltetrazolium bromide) (Sigma-Aldrich) was added, and incubated with the cells for 4 h, followed by addition of 100 μL 10% SLS, 0.01 M HCL. The plates were read at 595 nm on a Multiscan FC plate reader (Thermo Scientific) and the data was fitted to a variable slope dose–response curve using Graphpad prism v6 to obtain the cytotoxicity IC50. The assay was repeated independently three times where inhibition was observed.

[9] = test system: HEK293 cells; assay: MTT cell viability assay, HEK293; assay type: cell-based, human; details: 48 h
Experimental: as §1, §2

[10] = test system: T. gondii; set-up: method as in PMID 32968076; details: read-out: IC50 against T. gondii; cited from earlier work

O=C(NCCO)[c-]1cccc1.[Fe+2].c1cc[cH-]c1 [Compound F1, N-(Hydroxyethyl)ferrocenamide]
IC50 [1]: > 6000 nM

[Fe+2].c1cc[cH-]c1.c1cc[cH-]c1 [Ferrocene, reference compound]
E 1/2 [2]: 0.446 V
E Ox [2]: 0.499 V
E Red [2]: 0.393 V
ΔE [2]: 0.106 V

C[C@H]1[C@H](OC(=O)CCC(=O)O)O[C@@H]2O[C@@]3(C)CC[C@H]4[C@H](C)CC[C@@H]1[C@@]24OO3 [Artesunate, artesunate]
IC50 ([3]; Toxoplasma gondii, 96 h, read-out: IC50 against T. gondii): 200 ± 6 nM
IC50 ([3]; Toxoplasma gondii, read-out: IC50 + NAC against T. gondii): 310 ± 28 nM
Change in CellROX signal (intracellular ROS) [4]: increase
IC50 ([1]; Plasmodium falciparum, NF54): 3 ± 1 nM

NCCNC(=O)[c-]1cccc1.[Fe+2].c1cc[cH-]c1 [Compound F3, N-(2-aminoethyl)ferrocenamide]
IC50 [1]: > 6000 nM

COC(=O)[C@H]1[C@H]2C[C@@H]3c4[nH]c5cc(OC)ccc5c4CCN3C[C@H]2C[C@@H](OC(=O)c2cc(OC)c(OC)c(OC)c2)[C@@H]1OC [Reserpine, reference compound]
solubility at 4 h ([5]; HEPES buffer with 2% DMSO, HEPES pH 7, 37 °C, read-out: Aqueous solubility range, HEPES): 40 µM to 80 µM and 24 µg/mL to 50 µg/mL
solubility at 4 h ([5]; phosphate buffered saline (PBS) with 2% DMSO, PBS pH 7.4, 37 °C, read-out: Aqueous solubility range, PBS): 20 µM to 40 µM and 12 µg/mL to 24 µg/mL

CN(C)Cc1ccc[c-]1CNc1ccnc2cc(Cl)ccc12.[Fe+2].c1cc[cH-]c1 (centres unmarked) [Ferroquine, ferroquine]
Activity against CQ-R isolates of P. falciparum [6]: less than 30 nM

OC[c-]1cccc1.[Fe+2].c1cc[cH-]c1 [Compound F2, ferrocene methanol]
IC50 [1]: 3400 ± 96 nM

CC1CCC2C(C)C(OC(=O)CCC(=O)OC[c-]3cccc3)OC3OC4(C)CCC1C32OO4.[Fe+2].c1cc[cH-]c1 (centres unmarked) [Compound C2]
Solubility range ([5]; turbidimetric assay, buffer not named): 23 to 47 µg/mL
E 1/2 [2]: 0.503 V
E Ox [2]: 0.561 V
E Red [2]: 0.445 V
ΔE [2]: 0.116 V
Half-life [7]: 3.0 ± 0.16 min
Rate constant (hydrolysis) [7]: 0.23 ± 0.013 min⁻¹
IC50 ([3]; four days, in HFF host cells, three independent experiments in triplicate, ± SEM, read-out: IC50 against T. gondii): 280 ± 22 nM
IC50 [8]: > 100000 nM
IC50 [9]: 53000 ± 5700 nM
IC50 [1]: 19 ± 4 nM

C[C@H]1[C@@H](O)O[C@@H]2O[C@@]3(C)CC[C@H]4[C@H](C)CC[C@@H]1[C@@]24OO3 [DHA, dihydroartemisinin]
IC50 [10]: ~66 nM
